These results are taken from patent US20150174273A1, “IMAGING AND THERAPEUTIC METHODS FOR TREATING PARATHYROID TUMORS” (EMORY UNIVERSITY, priority 2012, published 2015).

Data set [1] has as its system FRs on freshly excised, non-cultured human PT adenoma cells. The data set is described as follows: 99mTc-EC20 uptake by PT adenoma cell slurry with or without cold folate block. Format: cell-based. Particulars: for 99mTc-EC20 uptake, not blocked: absence of cold folate; for 99mTc-EC20 uptake, blocked: pre-incubation with cold folate (200 μM). How it is done:
Some aliquots of cells were blocked by pre-incubation with cold folate (FA) (yellow bars).

Data set [2] deals with primary human parathyroid cells. The data set is described as follows: 18F FACBC uptake assay. The data set is classed as cell-based. Particulars: preliminary experiments. The source says: BCH is L type transporter inhibitor (2-amino-2-norboranecarboxylic acid), MeAlB is an A type inhibitor (2-[methylamine]isobutric acid), ACS is a multiple amino acid transporter inhibitor (L-alanine, L-cystine, L-serine).
In certain embodiments, the disclosure contemplates methods of ^18F-FACBC Imaging. […] See McConathy et al., Appl Radiat Isot. 2003; 58(6):657-66, hereby incorporated by reference. Parathormone is a peptide hormone, and the bioactive conformation includes a long helical dimer containing leucine residues. […] It is contemplated that parathyroid cells concentrate Anti-^18F-FACBC, and thus Anti-^18F-FACBC can be used as an imaging probe for PET imaging.

The conditions of data set [3]: in vivo; cited from earlier work.

As for `[NH-][C@@H](CNC(=O)CC[C@@H](NC(=O)c1ccc(NCc2cnc3nc(N)[nH]c(=O)c3n2)cc1)C(=O)O)C(=O)[N-][C@@H](CC(=O)O)C(=O)[N-][C@@H](C[S-])C(=O)O.[O]=[Tc+4]` [99mTc-EC20], in data set [1] (20 μl PT adenoma cell slurry), the “99mTc-EC20 uptake, not blocked” value came out at 3.4±0.4 % dose/20 μl tissue prep and the “99mTc-EC20 uptake, blocked” value turned out to be 1.9±0.2 % dose/20 μl tissue prep. For the same compound, in data set [1] (70 μl PT adenoma cell slurry), the “99mTc-EC20 uptake, not blocked” value is 10.9±0.9 % dose/70 μl tissue prep and the “99mTc-EC20 uptake, blocked” value was 5.7±0.3 % dose/70 μl tissue prep.
As for `NC1(C(=O)O)CC([18F])C1` (stereo not drawn) [Anti-^18F-FACBC, anti-1-amino-^18F-flurocyclobutane-1 carboxylic acid], the “uptake of Anti-18F-FACBC by primary human parathyroid cells” value in data set [2] was “significant specific uptake”. Moreover, in data set [3], the pancreatic concentration result is “high pancreatic concentration” and the renal excretion entry is “low renal excretion”.
